What was measured:
[1] = test system: BHK cells; experiment: cytotoxic activity on BHK cells (cell count after two days); format: cell-based, baby hamster; settings: highest dose tested 10^-8 M, FIG. 3
Description: The protein synthesis inhibition activity of the SAP protein was compared to the protein synthesis inhibition activity of the basic FGF-SAP conjugate in in vitro assays of protein synthesis as described in Siehn et al., Blood, 72:756-765 (1988), which is incorporated herein by reference. The cytotoxic activity of the conjugate was tested on baby hamster kidney fibroblasts (ATCC Accession No. CRL 6281). BHK cells were plated in 24 well plates at a concentration of 5000 cells/ml and incubated overnight at 37° C., 5% CO2. The following morning, HEPES-buffered DMEM and F-12 media (1:1) plus 5% FCS was aspirated from the wells and replaced with media alone or with media containing the conjugate, basic FGF or saporin. Two days later, the cells were washed twice, trypsinized and cell number determined with a Coulter Particle Counter (Coulter Electronics, Hialeah, Fla.).

[2] = test system: BHK cells; experiment: competition of cytotoxicity by preincubation with basic FGF or NGF; format: cell-based, baby hamster; settings: BHK cells preincubated one hour; basic FGF-SAP 10^-10 M; up to thousand-fold excess; FIG. 4
Description: Basic FGF-SAP was used at a concentration of 10^-10 M basic FGF-AP and C: preincubation with equimolar free of basic FGF; D: 10-fold excess of free basic FGF; E: 100-fold excess of basic FGF; F: 1000-fold excess of basic FGF; G: equimolar incubation with equimolar free NGF; H: 10-fold molar excess; I: 100-fold molar excess, J: […].
Specificity of the cytotoxic agent was examined in competition experiments in an effort to establish that the mitotoxic activity of the conjugate is receptor specific. BHK cells were preincubated for one hour with various levels of basic FGF or nerve growth factor (NGF) prior to treatment of the cells with the cytotoxic agent. […] In contrast, a thousand-fold excess of NGF has no effect.

Substance	toxic effect on BHK cell proliferation [1]	effect of preincubation on cytotoxic activity of basic FGF-SAP [2]
SAP: type-1 ribosome-inactivating protein isolated from the seeds of Saponaria officinalis	no toxic effect	
NGF: nerve growth factor used as competition control		no effect

Source: US5576288A, “Fibroblast growth factor conjugates” (The Salk Institute For Biological Studies, priority 1994, dated 1996)
